{"source": "patent US11773086B2", "about": "“Fungal modulators” (TRUSTEES OF BOSTON UNIVERSITY, priority 2020, dated 2023)", "key": {"[1]": {"system": "Saccharomyces cerevisiae (BY4741)", "assay": "Azoffluxin dose-response with background fluconazole", "type": "cell-based", "conditions": "fluconazole-sensitive laboratory strain BY4741, background FLC 0.5 μg/mL", "description": "FIGS. 2A-2E illustrate the above-described screening of the BU-CMD which identified azoffluxin as a fluconazole (FLC) potentiator against C. auris. […] Growth, as determined by optical density at 600 nm (OD600), is plotted in the presence of each CMD compound alone on the y-axis and in combination with FLC on the x-axis. Dotted lines represent 7-median absolute deviations from the median for each condition. […] FIG. 2B depicts the synergistic interactions. […] Growth was measured by the OD600 and normalized to the no drug control (see color bar). The fractional inhibitory concentration index (FICI) was calculated to determine the chemical interaction, with a value below 0.5 indicating synergy. […] FIG. 2D depicts FLC Etest strips in the presence and absence of 50 μM azoffluxin. […]\nCompound potency was assessed alone by dose response assays or in combination with another compound by dose-response matrixes in 96-well plates, or 384-well, flat-bottom, microtiter plates (Corning) as previously described. […] Growth was quantified by measuring OD600 and corrected for medium background. All strains were assessed in biological duplicate experiments with technical duplicates. […] For dose-response matrixes fractional inhibitory concentration index at 90% growth inhibition (FICI90) was calculated as previously described. […]"}, "[2]": {"system": "C. albicans CaCi-17 efflux", "assay": "Nile red accumulation (flow cytometry) in CaCi-17", "type": "cell-based, Candida albicans", "conditions": "CaCi-17 and its cdr1Δ/cdr1Δ mutant", "description": "FIG. 9A depicts checkerboard assays as described in FIG. 2B and performed with isolates of C. albicans. CaCi-2 and CaCi-17 represent early and late clinical isolates in which FLC resistance evolved over time. Growth was measured at 24 hours using OD600 and normalized to a no drug control well (see color bar). FIG. 9B depicts dose response assays conducted in YPD medium with a C. albicans parental strain, and strains with gain of function mutations in TAC1 as indicated. FLC was tittered in a two-fold dilution on the x-axis in the absence and presence of 50 μM azoffluxin. Growth was measured at 24 hours using OD600 and normalized to a no drug control well (see color bar). […] FIGS. 9D and 9E depict the intracellular concentrations of FLC and azoffluxin measured after treatment (combo treatment at 6.25 μM azoffluxin and 8 μg/mL FLC) for 1 hour by LC-MS. […] Significance was determined by an unpaired student t-test of each combination to the respective compound alone treatment, (*) indicates a p-value<0.05 and (**) indicates a p-value<0.01.\nCellular efflux was determined by measuring Nile red accumulation, as previously described. […] To quantify fluorescence, a CytoFlex Flow Cytometer (Beckman Coulter) was used. […] Each sample was run using the CytExpert Software until ˜20,000 events had been recorded. […]"}, "MRP1 (ABCC1)": {"biological_target": "T1, MRP1 (ABCC1) (Homo sapiens, UniProt P33527)", "T1 construct": "expressed in transfected cells; host or cells: HEK293", "T1 sequence (P33527 whole entry)": "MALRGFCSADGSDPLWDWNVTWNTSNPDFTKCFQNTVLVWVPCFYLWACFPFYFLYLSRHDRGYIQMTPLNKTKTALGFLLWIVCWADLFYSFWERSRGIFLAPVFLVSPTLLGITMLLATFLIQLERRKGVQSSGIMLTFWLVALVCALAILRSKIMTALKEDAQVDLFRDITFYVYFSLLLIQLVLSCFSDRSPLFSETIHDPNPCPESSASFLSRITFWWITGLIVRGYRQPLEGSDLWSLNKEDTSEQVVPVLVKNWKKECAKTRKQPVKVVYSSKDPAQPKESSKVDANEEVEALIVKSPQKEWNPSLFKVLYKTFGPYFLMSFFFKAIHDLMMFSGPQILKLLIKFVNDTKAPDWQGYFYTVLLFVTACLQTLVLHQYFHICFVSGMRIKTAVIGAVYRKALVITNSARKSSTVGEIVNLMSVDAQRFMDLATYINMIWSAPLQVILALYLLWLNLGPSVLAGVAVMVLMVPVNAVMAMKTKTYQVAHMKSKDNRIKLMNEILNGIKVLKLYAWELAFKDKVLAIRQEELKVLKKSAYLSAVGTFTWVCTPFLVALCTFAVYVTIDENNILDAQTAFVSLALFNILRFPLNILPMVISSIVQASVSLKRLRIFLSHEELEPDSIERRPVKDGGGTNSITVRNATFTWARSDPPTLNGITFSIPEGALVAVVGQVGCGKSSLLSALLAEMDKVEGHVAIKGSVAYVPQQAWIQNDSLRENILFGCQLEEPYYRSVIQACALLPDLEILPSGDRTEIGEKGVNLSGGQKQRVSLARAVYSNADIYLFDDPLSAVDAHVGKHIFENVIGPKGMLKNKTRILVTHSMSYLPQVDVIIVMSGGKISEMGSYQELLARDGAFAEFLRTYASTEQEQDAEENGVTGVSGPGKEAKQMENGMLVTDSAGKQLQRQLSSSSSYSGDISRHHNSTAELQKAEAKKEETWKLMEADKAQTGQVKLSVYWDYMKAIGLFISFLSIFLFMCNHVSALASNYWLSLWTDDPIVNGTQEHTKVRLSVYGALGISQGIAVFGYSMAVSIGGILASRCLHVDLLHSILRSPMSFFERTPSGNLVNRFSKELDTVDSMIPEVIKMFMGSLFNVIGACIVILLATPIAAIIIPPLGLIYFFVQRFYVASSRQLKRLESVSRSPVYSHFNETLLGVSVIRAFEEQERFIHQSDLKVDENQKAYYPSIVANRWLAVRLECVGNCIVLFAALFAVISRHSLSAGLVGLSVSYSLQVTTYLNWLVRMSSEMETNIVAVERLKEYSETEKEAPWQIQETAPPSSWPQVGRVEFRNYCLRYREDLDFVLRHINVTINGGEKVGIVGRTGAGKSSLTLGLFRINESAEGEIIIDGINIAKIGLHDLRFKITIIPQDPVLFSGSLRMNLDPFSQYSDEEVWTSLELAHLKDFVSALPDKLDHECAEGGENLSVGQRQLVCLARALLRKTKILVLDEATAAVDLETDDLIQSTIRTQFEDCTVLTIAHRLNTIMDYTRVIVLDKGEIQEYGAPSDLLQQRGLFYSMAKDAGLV", "assay": "Calcein AM accumulation in MRP1-overexpressing HEK293 cells (flow cytometry)", "type": "cell-based, mammalian", "conditions": "Calcein AM 2.5 μg/mL", "description": "P-gp overexpressing HEK293 cell lines were used to determine if azoffluxin treatment leads to a greater accumulation of fluorescent substrates (MFI) as determined by flow cytometry.\nMDR1 (ABCB1) and MRP1 (ABCC1) was assessed using the fluorescent dyes rhodamine 6G (0.5 μg/mL) and Calcein AM (2.5 μg/mL), for each pump respectively, and the known inhibitor controls tariquidar (60 nM) and MK571 (30 μM) for each pump respectively. Listed data is shown by FIG. 12E (R6G) and FIG. 12F (Cal)."}, "[3]": {"system": "HEK293 cancer cells that overexpress the efflux pump MDR1", "assay": "Doxorubicin cytotoxicity with azoffluxin", "type": "cell-based", "conditions": "dose response and single concentration", "from_the_text": "Dose response (FIG. 23A) and single concentration (FIG. 23B)."}}}
{"smiles": "C=C(C)C[C@@H](O)COc1cc2c(cc1C1(c3cc4c(cc3OC[C@H](O)CC(=C)C)OCO4)C(=O)Nc3cc(F)ccc31)OCO2", "note": "[CMLD012336]", "values": [{"measurement": "enhancement of fluconazole activity", "setting": "[1]", "value": "did not enhance the activity of fluconazole"}, {"measurement": "Nile red accumulation", "setting": "[2]", "value": "increase in Nile red accumulation"}, {"measurement": "increase in calcein AM (Cal)", "setting": "MRP1 (ABCC1)", "value": 2.5, "unit": "fold"}, {"measurement": "cytotoxicity of doxorubicin", "setting": "[3]", "value": "enhances cytotoxicity of doxorubicin"}]}
